Experimental data taken from patent publication US7704686B2, “Methods of identifying immunoregulatory agents, immunoregulatory agents, and uses thereof” (Toudai TLO, Ltd., priority 2003, dated 2010).

How the values were obtained:
Format in all cases: cell-based, human
caveolin-1 = experiment: Western blot of caveolin-1 in siRNA-transfected monocytes; settings: 48 hrs after transfection, HVJ-E vector
Description: Lysates were generated with RIPA lysis buffer (1% NP-40, 0.5% sodium deoxycholate, 0.1% SDS, 5 mM EDTA, 10 mM Tris-HCl (pH 7.4), 0.15 M NaCl, 1 mM PMSF, 0.5 mM NaF, 10 μg/ml aprotinin and 0.02 mM Na3VO4) from 1.0×10^7 of THP-1 cells incubated with recombinant soluble CD26 (rsCD26) or 1.0×10^7 of TT-loaded monocytes stimulated with rsCD26-coated beads. Then, lysates were clarified by 15,000×g for 30 min. Immunoprecipitates (IPs) were performed by incubating lysates with 2 μg of control immunoglobulins (Ig) and protein G-sepharose beads (Amersham Pharmacia) at 4° C. for 1 h. After centrifugation, supernatants were incubated with 2 μg of specific Ig at 4° C. for 2 h, followed by addition of protein G-sepharose beads for an overnight incubation. After washing four times with RIPA lysis buffer, beads were submitted to SDS-PAGE and Western blot analysis.
To design target-specific siRNA duplexes, the present inventors selected sequences of the type AA(N19) (N, any nucleotide) from the open reading frame of human caveolin-1 (accession number=NM 001753) (Elbashir, et al., 2001). Moreover, the inventors added the sequences to the 2-nucleotide 3′ overhangs of 2′-deoxythymidine (dTdT), in order to generate a symmetric duplex with respect to the sequence composition of the sense and antisense 3′ overhangs. These symmetric 3′ overhangs were reported to help to ensure that the siRNA were formed with approximately equal ratios of sense and antisense target RNA-cleaving siRNA (Elbashir, et al., 2001). Therefore, the present inventors selected two target sequences from 81 to 101 (ss1) and […] (ss2) downstream of the start codon of caveolin-1 mRNA (sense1 siRNA (ss1-siRNA): 5′[…] CAGACdTdT (SEQ ID NO: 6), and sense2 siRNA (ss2-siRNA): 5′ AAGGAGA […] dTdT (SEQ ID NO: 7)). Moreover, mis-siRNA at 4 nucleotides was prepared to examine non-specific effects of siRNA duplexes (mis-siRNA: 5′ […] GCAGACdTdT (SEQ ID NO: 8)). To visualize the efficiency of transfection, the inventors also prepared Texas red-conjugated missense siRNA (mis-siRNA-TR). […]

CD86 = experiment: Flow cytometry of surface CD86 on TT-loaded monocytes stimulated with CD26-coated beads; settings: siRNA-transfected monocytes, stimulated with CD26 wt-coated beads
Description: Freshly purified monocytes were cultured in Macrophage-SFM media for 24 h to diminish the effect of serum, and were preincubated with TT at a concentration of 0.5 μg/ml for an additional 24 h. After being washed with PBS, 1.0×10^6 of TT-loaded monocytes were stimulated for indicated periods with […] particles of polystyrene latex beads (Molecular Probes) coated with rsCD26 wt or rsCD26 del 201-211 (1.0 μg/ml). Stimulated monocytes were subjected to confocal laser microscopy, immunoprecipitation assay, Western blotting analysis, or flow cytometry (FCM).
In experiments assessing the expression of CD86 on purified monocytes after preincubation with or without TT (0.5 μg/ml) for 24 hours, following incubation with rsCD26-coated beads for 24 h, FITC-conjugated CD86 mAb (10 μg/ml) were used with PE-conjugated anti-CD14 (10 μg/ml) and Cy Chrome-conjugated CD45 (10 μg/ml) to gate exclusively on the monocyte population. In experiments assessing the effect of siRNA against caveolin-1 in monocytes, purified monocytes were transfected with siRNA as described below, following incubation with rsCD26-coated beads for 24 h, and stained as described above.
(§1) Flow-cytometric analysis of 10,000 viable cells was conducted on Becton-Dickinson FACScalibur. Each experiment was repeated at least three times, and the results were provided in the form of a histogram of a representative experiment, or increased mean percent±standard error (SE) of mean-fluorescent intensity (MFI), compared to control or untreated cells.
To design target-specific siRNA duplexes, the present inventors selected sequences of the type AA(N19) (N, any nucleotide) from the open reading frame of human caveolin-1 (accession number=NM 001753) (Elbashir, et al., 2001). Moreover, the inventors added the sequences to the 2-nucleotide 3′ overhangs of 2′-deoxythymidine (dTdT), in order to generate a symmetric duplex with respect to the sequence composition of the sense and antisense 3′ overhangs. […]

[1] = system: caveolin-1 on cell surface of monocytes; experiment: Flow cytometric detection of cell surface caveolin-1 on monocytes; settings: Filipin 1.0 μg/ml preincubation 30 min, then with or without TT
Description: For assessment of cell surface caveolin-1 exposure, after purified monocytes were treated with TT (0.5 μg/ml) for 0, 6, 12, 24, and 48 h, cells were washed with ice-cold PBS three times, and stained with anti-caveolin-1 antibody (5 μg/ml) for 60 min at 4° C., followed by staining with FITC conjugated anti-rabbit Ig antibody (1:200) for 60 min at 4° C. To disturb caveolae, purified monocytes were treated with Filipin (1.0 μg/ml, Sigma-Aldrich) for 30 min at 37° C. Cells were then subjected to TT loading and to staining caveolin-1 as described above.
as §1

[2] = system: conjugation of activated T cells and TT-loaded monocytes; experiment: T cell-APC conjugation assay; settings: monocytes preincubated with Filipin 30 min, then with or without TT
Description: For T cell-APC conjugation assay as described elsewhere (Lee, et al., 2002), 1.0×10^5 of activated T cells were mixed with 1.0×10^5 of purified monocytes that had been pulsed with or without TT (0.5 μg/ml for indicated time periods), with further centrifugation. Thirty minutes later, cell mixtures were attached to microslide glass (Matsunami Glass Inc., Tokyo, Japan) coated with poly-L-lysine, and fixed with 4% paraformaldehyde in PBS for 15 min at room temperature. Cells were blocked with mouse and rabbit Ig isotypes (1 μg/ml) for 30 min at 4° C., followed by incubation with anti-CD26 mAb and anti-caveolin-1 rabbit pAb (each of 10 μg/ml) for 60 min at 4° C., then washed with ice-cold PBS twice and incubated with FITC conjugated anti-mouse Ig and Texas red conjugated anti-rabbit Ig antibodies (1:200) for 60 min at 4° C. Cells were mounted in coverslips with Antifade Prolong kit. Conjugates were first identified by direct observation under differential interference contrast and then confirmed by detecting the green fluorescence of anti-CD26 mAb in T cells and the red fluorescence of anti-caveolin-1 pAb in monocytes. The proportion of T cell-APC conjugation was calculated by random choice of 500 different cells in a coverslips from five independent experiments. […]

Compound | caveolin-1 expression in monocytes (knock down) (caveolin-1) | effect on CD86 upregulation in TT-loaded monocytes (CD86) | caveolin-1 on cell surface of monocytes [1] | T cell-monocyte cell conjugation [2]
5′ AAGGAGA UCGACCUGGUCAAC dTdT [ss2] | effectively knocked down | inhibited | – | –
5′ UACAAGAAGGGCAUG GCAGACdTdT [mismatched siRNA] | not significantly knocked down | did not exhibit this inhibitory effect | – | –
5′AACAACAAGGCCAUGG CAGACdTdT [ss1] | effectively knocked down | inhibited | – | –
CCCCC[C@@H](O)[C@H]1C(=O)O[C@H](C)[C@@H](O)/C=C/C=C/C=C/C=C/C=C(\C)[C@@H](O)C[C@H](O)C[C@H](O)C[C@H](O)C[C@H](O)C[C@H](O)C[C@@H]1O [Filipin] | – | – | not detected | not detected
